Holding throughout (format): physicochemical
The nature of data set [1]: Rifampin release from encapsulated microspheres in microimplant array in sheep skin tissue. The following applies: PLGA microspheres in glycerol, 33 MP array, PBS 37 degree C., FIG. 14. The protocol:
Rifampin containing red/yellow microspheres are prepared using spray drying method or prepared according to Example 3. Microspheres are prepared using PLGA polymer (PDLG 5002 from Purac) polymer with 20 percent rifampin loading relative to the polymer plus drug weight. Control PLGA microspheres without rifampin are prepared under identical spry drying conditions. 4.9 mg of rifampin encapsulated microspheres are suspended in 0.25 ml glycerol. One/two drops of the suspension are added on the 2 by 2 cm glutaraldehyde fixed sheep tissue. The 33 MP microarray needles are pressed on the tissue via rifampin suspension to create 3 by 3 micro array cavities and infuse the cavities with the rifampin microspheres. The procedure is repeated 9 times on the same tissue at different locations to create 135 micro cavities loaded with rifampin microspheres. The excess suspension is wiped of using tissue paper. No loosely adherent microspheres in the tissue are noticed. The glycerol in the suspension is dissipated in the tissue leaving behind the microspheres in the cavities. […] The rifampin treated tissue and control tissue are incubated at 37 degree C. in 3 ml PBS and rifampin in treated and control samples is monitored at various time points. Rifampin concentration in the eluted samples is analyzed using UV-VIS spectrophotometer (wavelength 474 nm).

A short description of data set [2]: Bupivacaine base release from PLGA microimplants formed with oscillating needle in bovine pericardium. As to conditions: PDLG 5002 in DMSO infused by oscillating needle, PBS 37 degree C. The protocol:
Oscillating needle such as tattoo needle may be used to create cavities in the tissue or skin. A commercial tattoo machine as described in the related application (U.S. Pat. No. 9,072,678, cited herein for reference only) is used. The 500-1000 micron size tattoo needle is used and the oscillation frequency was 10 to 12000 oscillations per minute. About 1 square centimeter area was treated with the tattoo needle for 1 minute. The pores created by the tattoo machine repeated needle insertion were used to fill the injectable composition such PLGA solutions with the drug as described before. Alternatively, polymer solution is first applied on the tissue surface to form a solution layer and then the tattoo needle is used to create holes through the solution. The needle goes in and out of the tissue surface and carries the solution with it inside the cavity created. The deposited solution inside the cavity is precipitated by the tissue fluids and the precipitated polymer releases the drug in a sustained manner. Additional information about tattoo based methods can be found on related applications cited herein for reference only. […] The concentration of bupivacaine in the eluted samples is monitored using UV spectrophotometer. […]

A short description of data set [3]: Bupivacaine hydrochloride release from in situ PLGA implant with and without magnesium carbonate filler. As to conditions: FIG. 21B. The protocol: 100.2 mg PDLG 5002 polymer is dissolved in 1.0 ml DMSO. 10 microliters of methylene blue stock solution (10 mg methylene blue in 2 ml DMSO) is added to the polymer solution as a colorant. Infusion solutions are prepared using the following method: 15.2 mg bupivacaine hydrochloride and 0.50 ml polymer solution are mixed until drug is completely dissolved. 50 mg magnesium carbonate powder (fine powder sieved to collect fraction below 300 microns in size) is added as a biocompatible and biodegradable filler in the drug solution and the mixture is vigorously vortexed for 5 minutes. The magnesium carbonate suspension is infused/tattooed using an oscillating needle in 1 cm square area of sheep skin tissue. Excess solution from the tattooed surface is wiped off. The light blue tattoo with magnesium particles is clearly seen the by unaided naked eye.
Similarly, a polymer solution without magnesium carbonate is prepared and infused/tattooed in the sheep skin tissue as above. The infused tissue sample is cut and used in controlled release experiment.
The cut samples are placed in 3 mL of PBS (pH 7.4). The drug eluted PBS is collected at several time points. Fresh PBS is added to replace the eluted PBS solution. The collected PBS is analyzed using a UV spectrophotometer to determine the drug concentration.

“Also recorded” adds a separate entry of the source. Where a name gives a salt, the structure may show the parent alone.

`CO[C@H]1/C=C/O[C@@]2(C)Oc3c(C)c(O)c4c(O)c(c(/C=N/N5CCN(C)CC5)c(O)c4c3C2=O)NC(=O)/C(C)=C\C=C\[C@H](C)[C@H](O)[C@@H](C)[C@@H](O)[C@@H](C)[C@H](OC(C)=O)[C@@H]1C` [rifampin]: the “release of rifampin from microspheres in microimplant array” value in data set [1] is on record as “sustained release”.
Regarding `CCCCN1CCCCC1C(=O)Nc1c(C)cccc1C` (centres unmarked) [bupivacaine base, bupivacaine], the “sustained release of bupivacaine base from in situ formed implant” value in data set [2] (FIG. 13) is on record as “several days”; in data set [2] (FIG. 13, listed as bupivacaine), “released in a sustained manner; also recorded: few days”.
As for `CCCCN1CCCCC1C(=O)Nc1c(C)cccc1C` (centres unmarked) [bupivacaine hydrochloride], the “duration of release of bupivacaine hydrochloride” value is “several days; also recorded: much longer sustained release” in data set [3] (PLGA array implant with magnesium carbonate filler, hydrochloride) and “one to two days” in data set [3] (PLGA array implant without magnesium carbonate).

For the origin of these results see patent US12629345B2, “Methods, compositions, and devices for drug / live cell microarrays” (Pathak Holdings LLC, priority 2013, dated 2026).
